Measurements: patent US10351718B2, “Optical filter and imaging device” (AGC Inc., priority 2015, dated 2019)

What was measured:
[1] = Absorption characteristic of the dye in dichloromethane; assay type: physicochemical; details: for λ80 (wavelength with 80% transmittance on shorter wavelength side of λmax) / λmax − λ80: dichloromethane, transmittance at λmax set to 10%; for εA (maximum absorption coefficient in a wavelength of 430 to 550 nm) / εB (maximum absorption coefficient in a wavelength of 670 to 730 nm) / εB/εA / λmax (maximum absorption wavelength): dissolved in dichloromethane
Procedure: The dyes obtained above were each dissolved in dichloromethane, and using an ultraviolet-visible spectrophotometer (made by Hitachi High Technologies Co., Ltd., U-4100 type), each spectral transmittance curve was measured, from which a maximum absorption wavelength λmax, a wavelength λ80 with which the transmittance becomes 80% on a shorter wavelength side than the maximum absorption wavelength with the transmittance at the maximum absorption wavelength set to 10%, the difference between the maximum absorption wavelength λmax and the wavelength λ80 (λmax−λ80), a maximum absorption coefficient εA in a wavelength of 430 to 550 nm, a maximum absorption coefficient εB in a wavelength of 670 to 730 nm, and a ratio of these (εB/εA) were calculated. Note that measurement of the dye (A9) was not performed because its solubility was low. Further, for each of the following spectral transmittance curves, an ultraviolet-visible spectrophotometer (made by Hitachi High Technologies Co., Ltd., U-4100 type) was used.

[2] = Solubility of dye to resin solution; assay type: physicochemical; details: for Solubility Evaluation / Solubility: 12.5 mass % polyester resin OKP850 in cyclohexanone:MIBK 1:1, 50° C.; for Solubility: stirred two hours, visual; for Solubility to the resin solution (in words): polyester resin OKP850 solution, 50° C., compared to dyes without branch structure in R^1
Procedure: Regarding several kinds of the dyes obtained above, solubility to a resin solution was evaluated. In a solubility test, as the resin solution, there was used a solution having a resin concentration of 12.5 mass % that was prepared by dissolving a polyester resin (product name: OKP850 made by Osaka Gas Chemicals Co., Ltd.) in a mixed solvent (cyclohexanone:methyl isobutyl ketone (MIBK)=1:1). Results are illustrated in Table 5 together with the kinds of the used dyes. Incidentally, the temperature of the resin solution in the solubility test was 50° C., the dye was put into the resin solution, the resultant resin solution was stirred for two hours, and whether or not the dye was dissolved was observed visually. Evaluation criteria of the solubility are as follows.
A: Solubility greater than 10 mass %
B: Solubility greater than 5 mass % and 10 mass % or less
C: Solubility 5 mass % or less

For `CC1N(C)c2cc(NS(=O)(=O)C(F)(F)F)c(C3=C([O-])C(=c4cc5c(cc4NS(=O)(=O)C(F)(F)F)=[N+](C)C(C)C5(C)C)C3=O)cc2C1(C)C` (stereo not shown) [Dye A1-2], the “λ80 (wavelength with 80% transmittance on shorter wavelength side of λmax)” value [1] was 634 nm, the “λmax − λ80” value [1] was 63 nm and the “εA (maximum absorption coefficient in a wavelength of 430 to 550 nm)” value [1] was 0.0066. For the same compound, the “εB (maximum absorption coefficient in a wavelength of 670 to 730 nm)” value [1] was 1, the εB/εA [1] was 152 and the “λmax (maximum absorption wavelength)” value [1] was 697 nm. The “Solubility Evaluation” value [2] was “C (5 mass % or less)” and the Solubility [2] was 5 mass %.

In the case of `CC1N(C)c2cc(NS(=O)(=O)c3ccc(C(F)(F)F)cc3)c(C3=C([O-])C(=c4cc5c(cc4NS(=O)(=O)c4ccc(C(F)(F)F)cc4)=[N+](C)C(C)C5(C)C)C3=O)cc2C1(C)C` (stereo not shown) [Dye A1-8], the “λ80 (wavelength with 80% transmittance on shorter wavelength side of λmax)” value [1] was 634 nm, the “λmax − λ80” value [1] was 61 nm and the “εA (maximum absorption coefficient in a wavelength of 430 to 550 nm)” value [1] was 0.0117. For the same compound, the “εB (maximum absorption coefficient in a wavelength of 670 to 730 nm)” value [1] was 1, the εB/εA [1] was 85.5 and the “λmax (maximum absorption wavelength)” value [1] was 695 nm. The “Solubility Evaluation” value [2] was “C (5 mass % or less)” and the Solubility [2] was 3 mass %.

In the case of `CC(C)N1c2cc(NS(=O)(=O)C(F)(F)F)c(C3=C([O-])C(=c4cc5c(cc4NS(=O)(=O)C(F)(F)F)=[N+](C(C)C)C(C)C5(C)C)C3=O)cc2C(C)(C)C1C` (stereo not shown) [Dye A1-9], the “λ80 (wavelength with 80% transmittance on shorter wavelength side of λmax)” value [1] was 651 nm, the “λmax − λ80” value [1] was 52 nm and the “εA (maximum absorption coefficient in a wavelength of 430 to 550 nm)” value [1] was 0.0082. For the same compound, the “εB (maximum absorption coefficient in a wavelength of 670 to 730 nm)” value [1] was 1, the εB/εA [1] was 122 and the “λmax (maximum absorption wavelength)” value [1] was 703 nm. The “Solubility Evaluation” value [2] was “A (greater than 10 mass %)”, the Solubility [2] was 12 mass % and the “Solubility to the resin solution (in words)” value (shortened to “Solubility … (in words)”) [2] was “high solubility”.

With `CCCCCCCCS(=O)(=O)Nc1cc2c(cc1C1=C([O-])C(=c3cc4c(cc3NS(=O)(=O)CCCCCCCC)=[N+](C(C)C)C(C)C4(C)C)C1=O)C(C)(C)C(C)N2C(C)C` (stereo not shown) [Dye A1-15] the “λ80 (wavelength with 80% transmittance on shorter wavelength side of λmax)” value [1] was 646 nm, the “λmax − λ80” value [1] was 52 nm and the “εA (maximum absorption coefficient in a wavelength of 430 to 550 nm)” value [1] was 0.0112. The “εB (maximum absorption coefficient in a wavelength of 670 to 730 nm)” value [1] was 1, the εB/εA [1] was 89.3 and the “λmax (maximum absorption wavelength)” value [1] was 698 nm. For the same compound, the “Solubility Evaluation” value [2] was “A (greater than 10 mass %)”, the Solubility [2] was 15 mass % and the “Solubility … (in words)” value [2] was “high solubility”.

In the case of `CC(C)N1c2cc(NS(=O)(=O)c3ccc(C(F)(F)F)cc3)c(C3=C([O-])C(=c4cc5c(cc4NS(=O)(=O)c4ccc(C(F)(F)F)cc4)=[N+](C(C)C)C(C)C5(C)C)C3=O)cc2C(C)(C)C1C` (stereo not shown) [Dye A1-16], the “λ80 (wavelength with 80% transmittance on shorter wavelength side of λmax)” value [1] was 650 nm, the “λmax − λ80” value [1] was 52 nm and the “εA (maximum absorption coefficient in a wavelength of 430 to 550 nm)” value [1] was 0.0111. For the same compound, the “εB (maximum absorption coefficient in a wavelength of 670 to 730 nm)” value [1] was 1, the εB/εA [1] was 90.1 and the “λmax (maximum absorption wavelength)” value [1] was 702 nm. The “Solubility Evaluation” value [2] was “A (greater than 10 mass %)”, the Solubility [2] was 12 mass % and the “Solubility … (in words)” value [2] was “high solubility”.

With `CCCCCCCCS(=O)(=O)Nc1cc2c(cc1C1=C([O-])C(=c3cc4c(cc3NS(=O)(=O)CCCCCCCC)=[N+](C(C)(C)CC)C(C)C4(C)C)C1=O)C(C)(C)C(C)N2C(C)(C)CC` (stereo not shown) [Dye A1-21] the “λ80 (wavelength with 80% transmittance on shorter wavelength side of λmax)” value [1] was 656 nm, the “λmax − λ80” value [1] was 49 nm and the “εA (maximum absorption coefficient in a wavelength of 430 to 550 nm)” value [1] was 0.0143. The “εB (maximum absorption coefficient in a wavelength of 670 to 730 nm)” value [1] was 1, the εB/εA [1] was 69.9 and the “λmax (maximum absorption wavelength)” value [1] was 705 nm. The “Solubility Evaluation” value [2] was “A (greater than 10 mass %)”, the Solubility [2] was 12 mass % and the “Solubility … (in words)” value [2] was “high solubility”.
